Earlier results in patent publication US7994325B2, “CGRP receptor antagonists” (Merck Sharp & Dohme Corp., priority 2005, dated 2011).
Ends that are not written are not given here.

Experiments:
CGRP receptors [1] = conditions: rat (Escott et al. 1995)
CGRP receptors [2] = conditions: rats, prior administration (Williamson et al. 1997)
CGRP receptors [3] = conditions: marmoset (Doods et al. 2000)
CGRP receptors [4] = conditions: intravenously administered (Olesen et al. 2004)

Row | Molecule | effect on increased facial blood flow (CGRP receptors [1]) | effect on increase in diameter of the middle meningeal artery (CGRP receptors [2]) | effect on increase in facial blood flow (CGRP receptors [3]) | clinical efficacy and safety in migraine (CGRP receptors [4])
1 | CGRP(8-37): "a fragment of CGRP that lacks seven N-terminal amino acid residues, is a selective antagonist of CGRP1"; "a peptide CGRP antagonist" (VTHRLAGLLSRSGGVVKNNFVPTNVGSKAF; ends and bridges not checked; UniProt P06881 90-119, looked up, fragment) | inhibited | blocked |  | 
2 | NCCCC[C@H](NC(=O)[C@@H](Cc1cc(Br)c(O)c(Br)c1)NC(=O)N1CCC(N2Cc3ccccc3NC2=O)CC1)C(=O)N1CCN(c2ccncc2)CC1 [BIBN4096BS] |  |  | blocked | safe and effective acute treatment for migraine
